Assay results as given in ChEMBL document CHEMBL1125939, “Inhibition of steroid 5-reductase by 3-nitrosteroids: synthesis, mechanism of inhibition, and in vivo activity” (Bioorg Med Chem Lett, 1991).
pKi: −log10 of the molar value.

What was measured:
[1] = target: T1, 3-oxo-5-alpha-steroid 4-dehydrogenase 2 (Homo sapiens, UniProt P31213); test: Compound was tested for inhibitory activity against human prostatic Steroid 5-alpha-reductase; conditions: read-out: Ki app
T1 sequence (P31213 whole entry): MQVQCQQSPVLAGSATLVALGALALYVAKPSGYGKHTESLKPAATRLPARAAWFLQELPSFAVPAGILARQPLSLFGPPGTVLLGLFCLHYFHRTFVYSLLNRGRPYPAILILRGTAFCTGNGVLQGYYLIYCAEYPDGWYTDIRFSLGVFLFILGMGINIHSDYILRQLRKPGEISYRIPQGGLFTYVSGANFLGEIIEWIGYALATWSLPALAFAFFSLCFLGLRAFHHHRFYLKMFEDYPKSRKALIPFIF

[2] = Compound was tested for in vitro inhibitory activity against cynomolgus monkey Steroid 5-alpha-reductase; design: species or system Cercopithecidae
[3] = target: T1, 3-oxo-5-alpha-steroid 4-dehydrogenase 2; test: Compound was tested for inhibitory activity against human prostatic Steroid 5-alpha-reductase at 5 uM concentration; NS - No significant inhibition.

| Structure (SMILES) | pKi [1] | pKi [2] | Ki app [3] |
| --- | --- | --- | --- |
| CC(C)N(C(=O)[C@H]1CCC2C3CC[C@H]4C=C([N+](=O)[O-])CC[C@]4(C)C3CC[C@@]21C)C(C)C (stereo partly specified) | 7.30 | > 9.00 | – |
| CC(C)N(C(=O)[C@H]1CC[C@H]2[C@@H]3CCc4cc(C(=O)O)ccc4[C@H]3CC[C@]12C)C(C)C | 7.70 | – | – |
| CC(C)N(C(=O)[C@H]1CC[C@H]2[C@@H]3CCc4cc([N+](=O)[O-])ccc4[C@H]3CC[C@]12C)C(C)C | – | – | Not Active |

Other lines, results leading:

| pKi [1] | pKi [2] | Ki app [3] | Structure (SMILES) |
| --- | --- | --- | --- |
| – | 8.40 | – | CC(C)N(C(=O)[C@H]1CCC2C3CC=C4C=C(C(=O)O)CC[C@]4(C)C3CC[C@@]21C)C(C)C (stereo partly specified) |
| 6.23 | – | – | CC(C)N(C(=O)[C@H]1CCC2C3CC=C4C=C([N+](=O)[O-])CC[C@]4(C)C3CC[C@@]21C)C(C)C (stereo partly specified) |
